From PubChem BioAssay (NCI)
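Growth conditions: 96-well plates. Treatment: test compound, 48 hours, 5 concentrations. Analysis: linear interpolation between bracketing concentrations; unreached endpoints set to highest concentration. GI50 is the concentration that inhibits growth by half. TGI: total growth inhibition.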 *1 amine or outer side, *2 acyl side, *3 side chain or, on linkers, in order; H or OH if unused. Where a SMILES comes first, the peptide text is derived from it. CO = O=C([*:1])[*:2]

Columns and labels:
Experiment in all cases: NCI-60 cell line screen, 48 h
A549 NSCLC = tested on: A549 NSCLC
DU-145 prostate = tested on: DU-145 prostate
HT29 colon = tested on: HT29 colon
NCI-H226 lung = tested on: NCI-H226 lung
OVCAR-3 ovarian = tested on: OVCAR-3 ovarian
OVCAR-4 ovarian = tested on: OVCAR-4 ovarian
OVCAR-8 ovarian = tested on: OVCAR-8 ovarian
RPMI-8226 leukemia = tested on: RPMI-8226 leukemia
M14 melanoma = tested on: M14 melanoma
EKVX NSCLC = tested on: EKVX NSCLC

Structure (SMILES)	GI50 (A549 NSCLC) [µM]	TGI (A549 NSCLC) [µM]	GI50 (DU-145 prostate) [µM]	TGI (DU-145 prostate) [µM]	GI50 (HT29 colon) [µM]	TGI (HT29 colon) [µM]	GI50 (NCI-H226 lung) [µM]	TGI (NCI-H226 lung) [µM]	GI50 (OVCAR-3 ovarian) [µM]	TGI (OVCAR-3 ovarian) [µM]	GI50 (OVCAR-4 ovarian) [µM]	TGI (OVCAR-4 ovarian) [µM]	GI50 (OVCAR-8 ovarian) [µM]	TGI (OVCAR-8 ovarian) [µM]	GI50 (RPMI-8226 leukemia) [µM]	TGI (RPMI-8226 leukemia) [µM]	GI50 (M14 melanoma) [µM]	TGI (M14 melanoma) [µM]	TGI (EKVX NSCLC) [µM]	GI50 (EKVX NSCLC) [µM]
O=C(Nc1cccc(-c2nc3ccccc3[nH]2)c1)c1cccc(NC(=O)c2ccco2)c1	1.88	3.95	1.76	3.15	1.91	3.4	2.72	15.9	1.97	3.39	1.73	3.1	2.18	5.14	2.33	8.16				
C[C@@H](Oc1cc(-c2cnn(C3CC4(CCNCC4)C3)c2)cnc1N)c1c(F)ccc(Cl)c1Cl	1.04	3.63	2.27	11.5	0.446	2.17	2.51	17.5	1.83	5.19	1.79	6.53	2.71	12.3	1.63	4.95	1.15	2.61		
N#Cc1c(C(N)=O)ncn1Cc1ccccc1		> 100				> 100		> 100		> 100		> 100		> 100		> 100		> 100	> 100	
COc1ccc(C2c3cc4c(cc3OC(O)(CO)C2C(=O)O)OCO4)c(OC)c1OC (stereo not drawn) (tested in a mixture with another compound)		> 100				> 100				> 100		> 100		> 100		> 100		> 100	> 100	
C/C=C/CP(=O)(c1ccccc1)c1ccccc1		> 100				> 100		> 100		> 100		> 100		> 100		> 100		> 100	> 100	
Cc1cccc(Oc2ccc(Nc3ncnc4ccc(NC(=O)CN5CCN(C)CC5)cc34)cc2Cl)c1			1.18	2.57					1.42	2.99	1.72	4.3	2.11	5.68	1.76	4.39	1.72	3.38	2.64	1.12
CC(=O)Oc1cc2c(=O)oc3c(OC(C)=O)c(OC(C)=O)c(OC(C)=O)c4c(=O)oc(c1OC(C)=O)c2c34		> 100				> 100		99		> 100		> 100		> 100		> 100		> 100	> 100	
Cn1cc(C(=O)/C(Cl)=C(\Cl)C(=O)O)c2ccccc21		> 100				> 100		> 100		> 100		> 100		> 100		> 100		> 100	> 100	
O=C1CC(c2ccccc2)NCN1 (stereo not drawn)		> 100				> 100		> 100		> 100		> 100		> 100		> 100		> 100	> 100	
NC(=S)N/N=C1\C(=O)N(c2cccc([N+](=O)[O-])c2)C(=O)C1C(=O)Nc1cccc([N+](=O)[O-])c1 (stereo not drawn)		> 100				> 100		> 100		> 100		> 100		> 100		> 100		> 100	> 100	
O=c1[nH]cnc2c1nnn2[C@@H]1O[C@H](CO)[C@@H](O)[C@H]1O	27.5	> 100	1.72	> 100	4.51	> 100	30.1	> 100	3.43	33.8	1.89	> 100	0.843	> 100	2.68	25	3.54	41.9		
O=C(CC1(O)C(=O)Nc2ccccc21)c1ccc(O)cc1O (stereo not drawn)		> 100				> 100		> 100		> 100		> 100		> 100		> 100		> 100	> 100	
Fc1ccc(Nc2ccc3cc(OCCCN4CCOCC4)ccc3n2)cc1F	5.36	> 100	6.85	> 100	2.06	5.47			7.03	> 100	4.14	> 100	5.51	> 100	6.96	> 100			> 100	5.86
CCN(CC)CCCC(C)N/C(c1cccc(OC)c1)=c1\c(=O)[nH]n(-c2c3ccccc3nc3ccccc23)c(=O)\c1=C(/NC(C)CCCN(CC)CC)c1cccc(OC)c1 (stereo not drawn)	0.992	4.25	1.44	8.86	0.591	2.51	1.16	3.63	1.8	5.4	1.22	4.11	0.937	7.77	2.08	5.06	2.01	4.1		
COc1cc(-c2ccc(-[n+]3nc(-c4ccc([N+](=O)[O-])cc4)nn3-c3ccc([N+](=O)[O-])cc3)c(OC)c2)ccc1-[n+]1nc(-c2ccc([N+](=O)[O-])cc2)nn1-c1ccc([N+](=O)[O-])cc1	3.46	31.2	2.9	9.29	3.43	15.2	12.1	45.7	9.77	38.2	3.56	55.7	12.9	> 71.5	10.1	67.8	14.9	67.2		
COc1cc(N)ccc1Nc1c2ccccc2nc2ccccc12	4.32	24.9	3.79	14.8	3.29	11	2.35	10.2	12.2	25.4	10.6	> 45.6	10.2	36	5.27	> 29.9	16.5	36.2		
COC1=CC(C)C2C[C@H]3O[C@H](O)C[C@H]4C(C)C(=O)C(O)C([C@@]2(C)C1=O)[C@@]34C (stereo partly drawn)		> 100				> 100		> 100		> 100				> 100		> 100		> 100	> 100	

Structure (SMILES)	GI50 (A549 NSCLC) [µM]	TGI (A549 NSCLC) [µM]	GI50 (DU-145 prostate) [µM]	TGI (DU-145 prostate) [µM]	GI50 (HT29 colon) [µM]	TGI (HT29 colon) [µM]	GI50 (NCI-H226 lung) [µM]	TGI (NCI-H226 lung) [µM]	GI50 (OVCAR-3 ovarian) [µM]	TGI (OVCAR-3 ovarian) [µM]	GI50 (OVCAR-4 ovarian) [µM]	TGI (OVCAR-4 ovarian) [µM]	GI50 (OVCAR-8 ovarian) [µM]	TGI (OVCAR-8 ovarian) [µM]	GI50 (RPMI-8226 leukemia) [µM]	TGI (RPMI-8226 leukemia) [µM]	GI50 (M14 melanoma) [µM]	TGI (M14 melanoma) [µM]	TGI (EKVX NSCLC) [µM]	GI50 (EKVX NSCLC) [µM]
COc1ccc(C(=O)O)c2c(=O)c3ccccc3[nH]c12		> 100				> 100		> 100				> 100		> 100		> 100		> 31.6	> 100	
CC1(C)CC2=NOS3=C2C(=NO3)C1c1ccccn1 (stereo not drawn)		> 100		> 100		> 100				> 100		> 100		> 100		> 100		> 100	> 100	
CO/C=C/c1cc2c(cc1C(OC)OC)OCO2		> 100				> 100		> 100		80.9		> 100		> 100				87.9	> 100	
CC1CC(C)C(=O)C(C(=O)CC2CC(=O)NC2=O)C1 (stereo not drawn)		> 100				> 100		> 100		> 100		> 100		> 100		> 100		> 100	> 100	
CC(=O)[CH-]C(C)=O.CC(=O)[CH-]C(C)=O.CC(=O)[CH-]C(C)=O.[Cl-].[Hf+4]	> 100	> 100			> 100	> 100	> 100	> 100	> 100	> 100	> 100	> 100	> 100	> 100	> 100	> 100	> 100	> 100	> 100	> 100
CC1(C)OC(=O)C=C(O)O1.CC1(C)OC(=O)C=C(O)O1.CCO.Oc1ccc2c(c1)CCC2.[Ti]	> 100	> 100			> 100	> 100	> 100	> 100	> 100	> 100	> 100	> 100	> 100	> 100	> 100	> 100	> 100	> 100	> 100	> 100
Cc1ccc(NC(=O)/C(=N/NC(=O)CC#N)C2C(=O)N(c3ccccc3)N=C2N)cc1C (stereo not drawn)		> 100				> 100		> 100		> 100		> 100		> 100		> 100		> 100	> 100	
CCC(=O)Nc1ccc2c(c1)CN1C(=O)c3ccccc3C1=N2	> 100	> 100	> 100	> 100	> 100	> 100	> 100	> 100	> 100	> 100	> 100	> 100	> 100	> 100	> 100	> 100	> 100	> 100		
COc1ccc(C(=O)c2ccc(OC)cc2OC)cc1	5.55	> 100	3.52	25.6	2.92	24.4			2.2	5.95	6.54	> 100	4.55	> 100	3.18	18.7	2.47	> 100	> 100	7.17
Cc1cc(Nc2nc(N3CCOCC3)nc3ccccc23)n[nH]1	5.2	> 100	13.3	> 100	5.09	52.8	4.13	45.2	11.5	> 100	7.26	> 100	21.1	> 100	22.5	> 100	7.14	> 100		
CCCN1C(=O)/C(=C/c2ccc(O)cc2)SC1=Nc1ccccc1	23.9	58.2	17.4	40.8	33.5	86.7	30.3	54.1	17.8	33.8	25.2	49.5	25.8	68.8			48.7	> 100	32.1	14.5
O=C(Nc1ccc(N=Nc2ccccc2)cc1)Sc1ccccc1C(=O)O		> 100				> 100		> 100		> 100		> 100		> 100		> 100		> 100	> 100	
C/C=C/C/C=C/CCC(=O)C1OC1C(N)=O (stereo not drawn)		56		31.3		33.1				32.8		23.8		26.7				29.2	36.4	
CC(C)C(NC(=O)C(CCCN=C(N)N)NC(=O)NC(Cc1ccccc1)C(=O)O)C(=O)NC(C=O)CCCN=C(N)N (stereo not drawn) ({Phe-CO}-Arg-Val-Arg-aldehyde; configuration not given here)	> 5	> 5	> 5	> 5	> 5	> 5	> 5	> 5	> 5	> 5	> 5	> 5	> 5	> 5			> 5	> 5	> 5	> 5
NC1=NN(c2ccccc2)C(=O)C1C(=O)C(=O)Nc1cccc(C(F)(F)F)c1 (stereo not drawn)		> 100				> 100		> 100		> 100		> 100		> 100		> 100		> 100	> 100	
COc1ccc2c(c1)/C(=C/c1c(-c3ccc(C)cc3)nc3sc(C)cn13)C(=O)N2	12.5	> 100	4.75	> 100	8.92	> 100	20.1	95.9	15.5	> 100	14.2	> 100	12.4	> 100			13.2	59.1	> 100	9.62
